Assay results published in article PMC6518372, “An enzymatically stable GIP/xenin hybrid peptide restores GIP sensitivity, enhances beta cell function and improves glucose homeostasis in high-fat-fed mice” (Diabetologia, 2016).

Test system: BRIN-BD11 cells
Assay: Intracellular Ca2+ in BRIN-BD11 cells (FLIPR Calcium 5)
Type: cell-based, rat
Settings: peptide 10^−6 mol/l, 5.6 mmol/l glucose, 5 min, AUC 0–300 s
Method: BRIN-BD11 cells were used to assess the insulin-releasing activity of test peptides, as described previously. This hybrid cell line (ECACC 10033003) was originally generated in-house by electrofusion of a primary culture of New England Deaconess Hospital (NEDH) rat pancreatic islets with RINm5F (a cell line derived from an NEDH rat insulinoma), and has been mycoplasma eradicated. For details of experimental conditions please see ESM Methods. Insulin was measured by radioimmunoassay. We assessed the impact of GIP and neurotensin receptors on (DAla^2)GIP/xenin-8-Gln-induced insulin secretion in BRIN-BD11 cells. Cells were incubated in 5.6 mmol/l glucose with (DAla^2)GIP/xenin-8-Gln (10^−6 mol/l) alone or in combination with the GIP receptor antagonist GIP(6-30)Cex-K^40[Pal] [32] (where Pal is palmitate) or the neurotensin receptor antagonist SR142948A (Sigma, Poole, UK), and insulin secretion determined as described above. In addition, to determine mechanisms, intracellular Ca^2+ was also measured in BRIN-BD11 cells following treatment with test peptides (10^−6 mol/l), using a Flexstation scanning fluorometer (FLIPR Calcium 5 assay kit; Molecular Devices, Sunnyvale, CA, USA), as described previously.

## CC[C@H](C)[C@H](NC(=O)[C@H](CO)NC(=O)[C@H](Cc1ccc(O)cc1)NC(=O)[C@H](CC(=O)O)NC(=O)[C@H](CO)NC(=O)[C@@H](NC(=O)[C@H](Cc1ccccc1)NC(=O)[C@@H](NC(=O)CNC(=O)[C@H](CCC(=O)O)NC(=O)[C@@H](C)NC(=O)[C@@H](N)Cc1ccc(O)cc1)[C@@H](C)O)[C@@H](C)CC)C(=O)N[C@@H](C)C(=O)N[C@@H](CCSC)C(=O)N[C@@H](CC(=O)O)C(=O)N[C@@H](CCCCN)C(=O)N[C@H](C(=O)N[C@@H](Cc1c[nH]cn1)C(=O)N[C@@H](CCC(N)=O)C(=O)N[C@@H](CCC(N)=O)C(=O)N[C@@H](CC(=O)O)C(=O)N[C@@H](Cc1ccccc1)C(=O)N[C@H](C(=O)N[C@@H](CC(N)=O)C(=O)N[C@@H](Cc1c[nH]c2ccccc12)C(=O)N[C@@H](CC(C)C)C(=O)N[C@@H](CC(C)C)C(=O)N[C@@H](C)C(=O)N[C@@H](CCC(N)=O)C(=O)N[C@@H](CCCCN)C(=O)NCC(=O)N[C@@H](CCCCN)C(=O)N[C@@H](CCCCN)C(=O)N[C@@H](CC(N)=O)C(=O)N[C@@H](CC(=O)O)C(=O)N[C@@H](Cc1c[nH]c2ccccc12)C(=O)N[C@@H](CCCCN)C(=O)N[C@@H](Cc1c[nH]cn1)C(=O)N[C@@H](CC(N)=O)C(=O)N[C@H](C(=O)N[C@H](C(=O)N[C@@H](CCC(N)=O)C(=O)O)[C@@H](C)O)[C@@H](C)CC)C(C)C)[C@@H](C)CC [(DAla^2)GIP]
  Effect on intracellular Ca^2+ concentrations: Neither, (DAla^2)GIP, xenin-8-Gln nor (DAla^2)GIP/xenin-8-Gln had any effect
